From the NIST ThermoML archive (doi:10.1016/j.jct.2015.12.018)
± gives the expanded uncertainty stated by the source.

Test: molar enthalpy of vaporization or sublimation
Details: 298.15 K; Crystal; Static calorimetry

Row | molar enthalpy [kcal/mol] | SMILES
1 | 21.1 ± 1.05 | O=C1OCc2ccccc21 [1(3H)-isobenzofuranone]
2 | 21 ± 1.12 | O=C1OC(=O)c2ccccc21 [isobenzofuran-1,3-dione]
